Source: US12485100B2, “Treatment of menstrual cycle-induced symptoms” (Period Pill BV, priority 2019, dated 2025)
“Also recorded” adds a separate entry of the source.

Key:
[1] = system: women with menstrual cycle-induced symptoms (e.g. PMS, PMDD); experiment: Closed label trials of 3-MMC for menstrual cycle-induced symptoms (case reports of 11 women); format: in vivo, human
From the text: The following case studies exemplify some aspects of some embodiments of the methods of the present invention for treating perimenstrual disorders in subjects suffering at least one menstrual cycle-induced symptom by administering 3-MMC.
Detailed reports of 11 experiences of women with unlabeled (“pill”) 3-MMC for menstrual cycle-induced symptoms.
Between the second half of 2018 and the first months of 2019, eleven women participated in a blinded trial of 3-MMC (the “pill”) administered to alleviate their menstrual cycle-induced symptoms. The subjects tried different doses ranging from 12.5 mg. up to 50 mg.
Each one of the women used the 3-MMC for relief for at least two to three consecutive menstrual periods, with the number of trials varying from two to seven per woman, making a total of 45 trials.
Thus, the experience with 3-MMC for menstrual cycle-induced symptoms reported here is from […] separate trials.

[2] = animal models, cited from earlier work
[3] = 12.5 mg then 25 mg with an interval of five hours (Ana)
[4] = one dose of 12.5 mg plus one dose of 25 mg, total 37.5 mg
[5] = one dose of 12.5 mg, individual trials
[6] = one dose of 25 mg, individual trials
[7] = two doses of 12.5 mg (Ana: interval of five hours; Jenny: equivalent to 25 mg)
[8] = two doses of 25 mg, one hour interval, total 50 mg (Katy)

SMILES: CNC(C)C(=O)c1cccc(C)c1 (centres unmarked) [3-MMC, 3-methylmethcathinone]
- relief of symptoms at low dose (overview) ([1]; 12.5 mg): while not consistent, was often effective in providing relief of symptoms
- Psychological reaction [1, 3]: experienced less emotional distress and felt much calmer
- Side effects [1, 3]: an outbreak of acne
- Response summary of the subject ([1]; 37.5 mg dose): more aware of themself, more concentrated, energetic, daring, calmer, but they would still be irritated or angry; also recorded: Rebecca felt actually very good
- undesired side effects (overview) ([1]; 30-35 mg): some undesired side effects, such as tachycardia or temperature changes were occasionally more noticeable
- effect when administered in anticipation of symptoms ([1]; administration prior to symptom onset): can significantly reduce the intensity as well as duration of many menstrual cycle induced symptoms
- most commonly reported psychological and emotional effects ([1]; all subjects): enhanced their overall sense of well-being, increased energy levels, induced calmness and relaxation and heightened abilities of concentration; also recorded: a sense of relaxation and calm, often combined with heightened energy and ability to concentrate
- most commonly reported side effects ([1]; all subjects, 12.5-50 mg): tachycardia, sensation of body temperature changes (usually feeling warmer or sometimes colder) and sweating
- overall reported experience / relief of symptoms ([1]; eleven women, about 60 trials, doses 12.5 mg up to 50 mg): Ten out of the eleven reported a rather good to a very positive experience; also recorded: A desired positive effect was achieved with most trials; also recorded: provided relief from more than one of the reported menstrual cycle-induced symptoms
- side effects, individual subject's summary over all their doses ([1]; individual subjects, all doses taken): they never perceived non-desired side-effects; also recorded: increased heartbeat and stomach pain on empty stomach; also recorded: noticed body temperature changes; also recorded: an unfamiliar tingling at the back of the tongue and throat; also recorded: They experienced no side effects or physical reactions worth mentioning; also recorded: had no physical reactions or undesired side effects with any of the doses; also recorded: some light and non-desirable effects such as body temperature changes
- Psychological reaction [1, 4]: more willing to do things with an energetic flow that lasted up to four hours; also recorded: they could still sense anger and irritation, but now more in control; also recorded: They felt less irritated, less angry and more relaxed; also recorded: No perceived psychological effect; also recorded: felt very much calmer and much more relaxed than usual; also recorded: felt more awake, more energetic, more alive, therefore less tired and irritated
- Side effects [1, 4]: Accelerated heartbeat, dizziness, feeling hot and sweating and Accelerated heartbeat, sweating and lack of appetite and None and Sweating and appetite loss
- Psychological reaction [1, 5]: felt more emotionally stable after one hour, less oversensitive, less anxious and they had a slightly heightened mood and felt less depressed, not lethargic, down or exhausted anymore and They were no longer feeling down and exhausted and Exhaustion, feeling down, mood swings, feeling alone and helpless, over sensitive, powerlessness, forgetfulness, willing to cry and Experiencing less anxiety and nervousness, feeling calmer and not very focused, only a little and less irritable but not a major difference and more relaxed, less emotionally distressed and Calmer and more stable and less mood swings, less upset, less emotional and less tired and Ines felt calmer, less nervous and emotional and less distressed and tense and None (they felt no effect whatsoever with this small dose) and None and None, not better nor worse
- Side effects [1, 5]: perceived no negative physical reactions or side effects and Stomach pain and none and none (apart from feeling warmer) and Tingling tongue, light somnolence and None
- Psychological reaction [1, 6]: emotional distress, mood swings and anxiety decreased; also recorded: Ana felt calmer and more relaxed; also recorded: felt less angry and irritated; also recorded: they were more focused, having a heightened mood, they felt less helpless and more in control; also recorded: experienced no emotional distress or feeling down or any tension; also recorded: no longer feeling low, anxious or distressed; also recorded: feeling focused and motivated to study; also recorded: feeling focused and more concentrated; also recorded: they could focus and concentrate on their studies and was also more motivated; also recorded: they felt relaxed, calmer; also recorded: Fanny felt calmer and stable; also recorded: no longer feeling upset, felt a lot calmer; also recorded: Small, but transient improvement in their mood; also recorded: felt more relaxed, less tense; also recorded: feeling noticeably less upset and less sad; also recorded: Jenny felt better, less anxious, less unhappy; also recorded: felt better and more relaxed; also recorded: Her sadness faded away; also recorded: relief of the sadness, not down or stressed anymore; also recorded: experienced slightly less tension; also recorded: a bit calmer, after two hours very relaxed, not crying anymore
- Side effects [1, 6]: none and None and stomach ache (on an empty stomach) and a higher heart rate and Cold hands and feet and drowsiness and some muscle pain or tension and Temporal slight stomach and muscle pain and Perceived body temperature changes, tingling sensation in the throat and Difficulty to go to sleep and somewhat tired and body temperature changes
- interaction with paracetamol ([1]; one subject (Bea), 12.5 mg 3-MMC combined with paracetamol): did not experience any undesirable interactions with the 3-MMC; also recorded: without any noticeable substance interaction or undesired effect
- side effects with repeated use ([1]; repeated use): side-effects tend to diminish over time with repeated use of 3-MMC
- effect when administered after onset of symptoms ([1]; some subjects): 3-MMC was effective even when administered after the onset of menstrual cycle-induced symptoms
- effect on somatic symptoms ([1]; some subjects (e.g. headache, physical pain)): administration of 3-MMC resulted in disappearance of somatic symptoms (e.g. headache); also recorded: can also produce a reduction in somatic symptoms (e.g. physical pain); also recorded: some of the subjects reported alleviation of somatic symptoms
- perceived effect ([1]; subject Gertie, 40 mg in one intake): a bit too much
- perceived benefit ([1]; subject Gertie, doses between 10 mg and 20 mg): They didn't perceive any benefit
- perceived benefit ([1]; subject Gertie, doses between 20 and 30 mg): They felt positive effects
- response and psychological effects ([1]; subject Gertie, one or two pills a couple of days before menstruation, usual dose 20-25 mg): feels less tense; also recorded: they are able to take decisions again; also recorded: a radical positive life change
- response summary ([1]; subject Ines, alternating doses of 12.5 mg and 25 mg, seven occasions): The main effect was calming and relaxing; also recorded: no significant dose response has been observed
- Psychological reaction [1, 7]: their emotional distress, feeling down, mood swings, helplessness and anxiety declined; also recorded: felt more energized, no longer down or sad
- Side effects [1, 7]: none and None
- Psychological reaction [1, 8]: no longer angry although they could still feel irritated; also recorded: They experienced reduced irritability and anger; also recorded: felt more energetic, less irritated and after two hours they were very calm
- Side effects [1, 8]: Increased heartbeat, sweating and loss of appetite; also recorded: No noticeable side effects; also recorded: a brief period (one hour) of depression
- cumulative positive effect of repeated administration ([1]; two or more consecutive doses within about 24 hours of each other): taking the pill two consecutive days made the effect of the second one last longer; also recorded: Possibly a cumulative effect; also recorded: a sort of a cumulative positive effect; also recorded: the positive effects of 3-MMC reportedly persisted; also recorded: positive effects persist
- time of peak serum concentrations ([2]; after oral administration): 5 to 10 min
- apparent plasma half-life ([2]; after oral ingestion): approximately 0.8 hours
